Entries after “also recorded” stand apart in the source; their conditions may differ.
What was measured:
[1] = Absorption, excitation and emission spectra of mitoferrofluor; format: physicochemical
[2] = Cell-free MFF fluorescence as a function of Fe2+ concentration; format: physicochemical
Description: (§1) MFF (0-10 μM) was dissolved in medium at the presumed intramitochondrial pH (pH 8.0, 37° C.) (FIG. 2, left panel). Fluorescence of MFF (1 μM) was measured as a function of increasing ferrous ammonium sulfate (Fe^2+) and ferric chloride (Fe^3+) concentration from freshly prepared stock solutions (1 mM). Fluorescence intensity is shown in arbitrary units (a.u.). (FIG. 2, right panel).

[3] = Cell-free MFF fluorescence as a function of Fe3+ concentration; format: physicochemical; conditions: cell free medium
Description: as §1

[4] = system: mitochondria of cultured rat hepatocytes; experiment: Mitochondrial accumulation and retention of probe after depolarization, confocal imaging; format: cell-based; conditions: for retention by mitochondria after depolarization: rat hepatocytes, CCCP 10 μM, oligomycin 10 μg/ml, myxothiazol 10 μM
Description: (§2) Rhodamine 123 (Rh123) and MitoTracker Green (MTG) were obtained from Molecular Probes. Primary rat hepatocytes were isolated from overnight-fasted male Sprague-Dawley rats (200-250 g) by collagenase perfusion. Hepatocytes were plated on Type 1 collagen-coated MatTek dishes at a density of 300,000 cells per well and cultured overnight in Waymouth's MB-742/1 growth medium containing 27 mM NaHCO3, 2 mM L-glutamine, 10% fetal calf serum, 100 nM insulin and 10 nM dexamethasone, pH 7.4 at 37° C. in 5% CO2/air.
(§3) Confocal images of hepatocytes were taken with a Zeiss LSM 510 inverted laser scanning confocal microscope (Carl Zeiss, Germany) using a 63×oil immersion objective.
Overnight-cultured rat hepatocytes were loaded with MFF (1 μM for 20 min), washed and incubated for 60 min.
Overnight-cultured rat hepatocytes were loaded with MFF and MTG (both 1 μM for 20 min), washed and incubated for 60 min. Cells were then incubated with 5 mM fructose and imaged “BEFORE” and “AFTER” addition of CCCP, oligomycin and myxothiazol. […] MFF fluorescence changed essentially identically to MTG consistent with covalent labeling of mitochondrial proteins by MFF.

[5] = system: mitochondrial chelatable Fe^2+ in cultured rat hepatocytes; experiment: Mitoferrofluor quenching after mitochondrial Fe2+ uptake; format: cell-based
Description: as §2, §3
Overnight-cultured rat hepatocytes were loaded with MFF (1 μM for 20 min), washed out and incubated for 60 min. Rh123 (0.5 μM for 20 min) was then loaded. Fe^2+ was added as ferrous ammonium sulfate (10 mM). Fe^2+ addition quenched MFF fluorescence by ˜72%.

[6] = system: mitochondrial chelatable Fe^2+ in cultured rat hepatocytes; experiment: Mitoferrofluor fluorescence quenching after lysosomal iron release with bafilomycin A1; format: cell-based; conditions: 120 min after bafilomycin A1, vs vehicle (DMSO)
Description: as §2, §3
Overnight-cultured rat hepatocytes were loaded with MFF and then rhodamine 123, as described in Example 6. […] Panel C represents a quantitative analysis of 10 random fields (*p<0.05 vs vehicle, n=3).

Row | SMILES | fluorescence emission peak [1] [nm] | fluorescence excitation peak [1] [nm] | extinction coefficient ([1]; at 566 nm) | IC50 ([2]; MFF 1 μM, pH 8.0, 37° C., read-out: IC50 of Fe^2+ quenching of MFF fluorescence) [nM] | quenching of MFF fluorescence by Fe^2+ ([2]; cell free medium) | quenching of MFF fluorescence by Fe^3+ [3] | accumulation into mitochondria ([4]; cultured rat hepatocytes) | retention by mitochondria after depolarization [4] | decrease of intramitochondrial MFF fluorescence ([5]; MFF-loaded hepatocytes, excess extracellular Fe^2+ added) [%] | quenching of MFF fluorescence by Fe^2+ addition ([5]; rat hepatocytes, MFF 1 μM for 20 min, ferrous ammonium sulfate 10 mM) [%] | quenching of mitochondrial MFF fluorescence after bafilomycin A1 [6]
1 | CCN(CC)c1ccc2c(-c3ccccc3C(=O)OCCCOc3cc(OCCCBr)cc(C(=O)Nc4cc5cccnc5c5ncccc45)c3)c3ccc(=[N+](CC)CC)cc-3oc2c1.[Br-] [MFF, N-(9-(2-((3-(3-((1,10-phenanthrolin-5-yl)carbamoyl)-5-(3-bromopropoxy)phenoxy)propoxy)carbonyl)phenyl)-6-(diethylamino)-3H-xanthen-3-ylidene)-N-ethylethanaminium bromide] | 598 | 554 | 40,400 cm^−1/M | 1000 to 2000 | strongly and stoichiometrically quenched by Fe^2+ | not by Fe^3+; also recorded: not Fe^3+ quenched | selectively accumulated into mitochondria | retained by mitochondria; also recorded: MFF fluorescence was retained; also recorded: retained MFF to the same extent as MTG | ~80 | ~72 | became quenched; also recorded: quenched mitochondrial MFF fluorescence
2 | CN1/C(=C/C=C/c2n(Cc3ccc(CCl)cc3)c3cc(Cl)c(Cl)cc3[n+]2Cc2ccc(CCl)cc2)Oc2ccccc21 [MTG, reference compound] | – | – | – | – | – | – | – | some release of MTG into the cytosol | – | – | –

Reference: patent US9970947B2, “Fluorescent probe” (MUSC FOUNDATION FOR RESEARCH DEVELOPMENT, priority 2016, dated 2018)
